# Key:
# Assay type in all cases: in vivo
# [1] = system: Johnsongrass (Sorghum halepense, SORHA); test: Pre-emerge greenhouse herbicide test, phytotoxicity rating; settings: 14 days after application, rating scale 0-100
# Summary of the method: (§1)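 Seeds sown in sandy loam one day before track-sprayer application of acetone solutions at 125–1000 g ai/ha (187 l/ha), then surface-watered to incorporate and bottom-watered. Injury scored visually at 14 days on a 0–100 scale (0 no damage, 100 complete death).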
# [2] = system: barnyardgrass (Echinochloa crusgalli, ECHCG); test: as above; settings: 14 days after application, rating scale 0-100
# Summary of the method: as §1
# [3] = system: common ragweed (Ambrosia artemisiifolia L., AMBEL); test: as above; settings: 14 days after application, rating scale 0-100
# Summary of the method: as §1
# [4] = system: green foxtail (Setaria viridis, SETVI); test: as above; settings: 14 days after application, rating scale 0-100
# Summary of the method: as §1
# [5] = system: ivyleaf morningglory (Ipomoea hederacea, IPOHE); test: as above; settings: 14 days after application, rating scale 0-100
# Summary of the method: as §1
# [6] = system: lambsquarters (Chenopodium album, CHEAL); test: as above; settings: 14 days after application, rating scale 0-100
# Summary of the method: as §1
# [7] = system: large crabgrass (Digitaria sanguinalis, DIGSA); test: as above; settings: 14 days after application, rating scale 0-100
# Summary of the method: as §1
# [8] = system: redroot pigweed (Amaranthus retroflexus, AMARE); test: as above; settings: 14 days after application, rating scale 0-100
# Summary of the method: as §1
# [9] = system: sicklepod (Cassia obtusifolia, CASOB); test: as above; settings: 14 days after application, rating scale 0-100
# Summary of the method: as §1
# [10] = system: velvetleaf (Abutilon theophrasti, ABUTH); test: as above; settings: 14 days after application, rating scale 0-100
# Summary of the method: as §1
# [11] = system: field corn (Zea mays L., var. Dekalb 535, CORN); test: Pre-emerge greenhouse test, crop damage rating; settings: 14 days after application, rating scale 0-100
# Summary of the method: as §1
# [12] = system: upland rice (Oryza sp., var.Tebonnet, RICE); test: Pre-emerge greenhouse test, crop damage rating; settings: 14 days after application, rating scale 0-100
# Summary of the method: as §1
# [13] = system: soybean (Glycine max L., var. Pella 86, SOY); test: Pre-emerge greenhouse test, crop damage rating; set-up: key to SOY crop damage rating: 0 = no damage, 100 = complete death of all plants; settings: 14 days after application, rating scale 0-100
# Summary of the method: as §1
# [14] = system: common ragweed (Ambrosia artemisiifolia L., AMBEL); test: Post-emerge greenhouse herbicide test, phytotoxicity rating; settings: 14 days after application; for phytotoxicity rating AMBEL: scale 0-100
# Summary of the method: (§2)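 Plants at the 2-3 leaf stage, sown 8-21 days earlier, were track-sprayed post-emergence with compound in acetone plus 0.25% v/v non-ionic surfactant at 63-1000 g ai/ha (187 l/ha). Damage was rated at 14 days on a 0-100 scale (0 none, 100 all plants dead), for both crop injury and weed control.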
# [15] = system: Johnsongrass (Sorghum halepense, SORHA); test: as above; settings: 14 days after application; for phytotoxicity rating SORHA: scale 0-100
# Summary of the method: as §2
# [16] = system: barnyardgrass (Echinochloa crusgalli, ECHCG); test: as above; settings: 14 days after application; for phytotoxicity rating ECHCG: scale 0-100
# Summary of the method: as §2
# [17] = system: green foxtail (Setaria viridis, SETVI); test: as above; settings: 14 days after application; for phytotoxicity rating SETVI: scale 0-100
# Summary of the method: as §2
# [18] = system: ivyleaf morningglory (Ipomoea hederacea, IPOHE); test: as above; settings: 14 days after application; for phytotoxicity rating IPOHE: scale 0-100
# Summary of the method: as §2
# [19] = system: lambsquarters (Chenopodium album, CHEAL); test: as above; settings: 14 days after application; for phytotoxicity rating CHEAL: scale 0-100
# Summary of the method: as §2
# [20] = system: large crabgrass (Digitaria sanguinalis, DIGSA); test: as above; settings: 14 days after application; for phytotoxicity rating DIGSA: scale 0-100
# Summary of the method: as §2
# [21] = system: redroot pigweed (Amaranthus retroflexus, AMARE); test: as above; settings: 14 days after application; for phytotoxicity rating AMARE: scale 0-100
# Summary of the method: as §2
# [22] = system: sicklepod (Cassia obtusifolia, CASOB); test: as above; settings: 14 days after application; for phytotoxicity rating CASOB: scale 0-100
# Summary of the method: as §2
# [23] = system: velvetleaf (Abutilon theophrasti, ABUTH); test: as above; settings: 14 days after application; for phytotoxicity rating ABUTH: scale 0-100
# Summary of the method: as §2
# [24] = system: field corn (Zea mays L., var. Dekalb 535, CORN); test: Post-emerge greenhouse test, crop damage rating; settings: 14 days after application; for crop damage rating CORN: scale 0-100
# Summary of the method: as §2
# [25] = system: upland rice (Oryza sp., var.Tebonnet, RICE); test: Post-emerge greenhouse test, crop damage rating; settings: 14 days after application; for crop damage rating RICE: scale 0-100
# Summary of the method: as §2
# [26] = system: soybean (Glycine max L., var. Pella 86, SOY); test: Post-emerge greenhouse test, crop damage rating; set-up: key to crop damage rating SOY: 0-100 scale: 0 = no damage, 100 = complete death of all plants; settings: 14 days after application; for crop damage rating SOY: scale 0-100
# Summary of the method: as §2
compound,measurement,setting,value
N#Cc1cccnc1Oc1cc(-n2c(=O)n3n(c2=S)CCCC3)c(F)cc1Cl [Compound 8-20],SORHA phytotoxicity rating,[1]; Rate 125 g al/ha,40
same,SORHA phytotoxicity rating,[1]; Rate 500 g al/ha,90
same,ECHCG phytotoxicity rating,[2]; Rate 125 g al/ha,60
same,ECHCG phytotoxicity rating,[2]; Rate 500 g al/ha,80
same,AMBEL phytotoxicity rating,[3]; Rate 125 g al/ha,90
same,AMBEL phytotoxicity rating,[3]; Rate 500 g al/ha,100
same,SETVI phytotoxicity rating,[4]; Rate 125 g al/ha,95
same,SETVI phytotoxicity rating,[4]; Rate 500 g al/ha,100
same,IPOHE phytotoxicity rating,[5]; Rate 125 g al/ha,95
same,IPOHE phytotoxicity rating,[5]; Rate 500 g al/ha,100
same,CHEAL phytotoxicity rating,[6]; Rate 125 g al/ha,100
same,CHEAL phytotoxicity rating,[6]; Rate 500 g al/ha,100
same,DIGSA phytotoxicity rating,[7]; Rate 125 g al/ha,40
same,DIGSA phytotoxicity rating,[7]; Rate 500 g al/ha,100
same,AMARE phytotoxicity rating,[8]; Rate 125 g al/ha,100
same,AMARE phytotoxicity rating,[8]; Rate 500 g al/ha,100
same,CASOB phytotoxicity rating,[9]; Rate 125 g al/ha,90
same,CASOB phytotoxicity rating,[9]; Rate 500 g al/ha,100
same,ABUTH phytotoxicity rating,[10]; Rate 125 g al/ha,100
same,ABUTH phytotoxicity rating,[10]; Rate 500 g al/ha,100
same,CORN crop damage rating,[11]; Rate 125 g al/ha,5
same,CORN crop damage rating,[11]; Rate 500 g al/ha,10
same,RICE crop damage rating,[12]; Rate 125 g al/ha,20
same,RICE crop damage rating,[12]; Rate 500 g al/ha,40
same,SOY crop damage rating,[13]; Rate 125 g al/ha,20
same,SOY crop damage rating,[13]; Rate 500 g al/ha,25
same,phytotoxicity rating AMBEL,[14]; rate 63 g ai/ha,90
same,phytotoxicity rating AMBEL,[14]; rate 500 g ai/ha,100
same,phytotoxicity rating SORHA,[15]; rate 63 g ai/ha,90
same,phytotoxicity rating SORHA,[15]; rate 500 g ai/ha,100
same,phytotoxicity rating ECHCG,[16]; rate 63 g ai/ha,20
same,phytotoxicity rating ECHCG,[16]; rate 500 g ai/ha,40
same,phytotoxicity rating SETVI,[17]; rate 63 g ai/ha,70
same,phytotoxicity rating SETVI,[17]; rate 500 g ai/ha,0
same,phytotoxicity rating IPOHE,[18]; rate 63 g ai/ha,100
same,phytotoxicity rating IPOHE,[18]; rate 500 g ai/ha,100
same,phytotoxicity rating CHEAL,[19]; rate 63 g ai/ha,95
same,phytotoxicity rating CHEAL,[19]; rate 500 g ai/ha,100
same,phytotoxicity rating DIGSA,[20]; rate 63 g ai/ha,30
same,phytotoxicity rating DIGSA,[20]; rate 500 g ai/ha,30
same,phytotoxicity rating AMARE,[21]; rate 63 g ai/ha,100
same,phytotoxicity rating AMARE,[21]; rate 500 g ai/ha,100
same,phytotoxicity rating CASOB,[22]; rate 63 g ai/ha,90
same,phytotoxicity rating CASOB,[22]; rate 500 g ai/ha,100
same,phytotoxicity rating ABUTH,[23]; rate 63 g ai/ha,100
same,phytotoxicity rating ABUTH,[23]; rate 500 g ai/ha,100
same,crop damage rating CORN,[24]; rate 63 g ai/ha,15
same,crop damage rating CORN,[24]; rate 500 g ai/ha,20
same,crop damage rating RICE,[25]; rate 63 g ai/ha,15
same,crop damage rating RICE,[25]; rate 500 g ai/ha,60
same,crop damage rating SOY,[26]; rate 63 g ai/ha,90
same,crop damage rating SOY,[26]; rate 500 g ai/ha,100
COc1cc(OC)nc(Oc2cc(-n3nnn(CCCF)c3=O)c(F)cc2Cl)n1 [Compound 6-15],phytotoxicity rating SORHA,[1]; 125 g ai/ha,0
same,phytotoxicity rating SORHA,[1]; 500 g ai/ha,10
same,phytotoxicity rating ECHCG,[2]; 125 g ai/ha,0
same,phytotoxicity rating ECHCG,[2]; 500 g ai/ha,0
same,phytotoxicity rating AMBEL,[3]; 125 g ai/ha,0
same,phytotoxicity rating AMBEL,[3]; 500 g ai/ha,0
same,phytotoxicity rating SETVI,[4]; 125 g ai/ha,10
same,phytotoxicity rating SETVI,[4]; 500 g ai/ha,90
same,phytotoxicity rating IPOHE,[5]; 125 g ai/ha,0
same,phytotoxicity rating IPOHE,[5]; 500 g ai/ha,10
same,phytotoxicity rating CHEAL,[6]; 125 g ai/ha,20
same,phytotoxicity rating CHEAL,[6]; 500 g ai/ha,100
same,phytotoxicity rating DIGSA,[7]; 125 g ai/ha,10
same,phytotoxicity rating DIGSA,[7]; 500 g ai/ha,60
same,phytotoxicity rating AMARE,[8]; 125 g ai/ha,30
same,phytotoxicity rating AMARE,[8]; 500 g ai/ha,100
same,phytotoxicity rating CASOB,[9]; 125 g ai/ha,0
same,phytotoxicity rating CASOB,[9]; 500 g ai/ha,30
same,phytotoxicity rating ABUTH,[10]; 125 g ai/ha,20
same,phytotoxicity rating ABUTH,[10]; 500 g ai/ha,100
same,crop damage rating CORN,[11]; 125 g ai/ha,0
same,crop damage rating CORN,[11]; 500 g ai/ha,100
same,crop damage rating RICE,[12]; 125 g ai/ha,0
same,crop damage rating RICE,[12]; 500 g ai/ha,10
same,crop damage rating SOY,[13]; 125 g ai/ha,0
same,crop damage rating SOY,[13]; 500 g ai/ha,0
same,AMBEL phytotoxicity rating (0-100),[14]; 63 g al/ha,0
same,AMBEL phytotoxicity rating (0-100),[14]; 500 g al/ha,20
same,SORHA phytotoxicity rating (0-100),[15]; 63 g al/ha,0
same,SORHA phytotoxicity rating (0-100),[15]; 500 g al/ha,10
same,ECHCG phytotoxicity rating (0-100),[16]; 63 g al/ha,0
same,ECHCG phytotoxicity rating (0-100),[16]; 500 g al/ha,0
same,SETVI phytotoxicity rating (0-100),[17]; 63 g al/ha,0
same,SETVI phytotoxicity rating (0-100),[17]; 500 g al/ha,40
same,IPOHE phytotoxicity rating (0-100),[18]; 63 g al/ha,20
same,IPOHE phytotoxicity rating (0-100),[18]; 500 g al/ha,70
same,CHEAL phytotoxicity rating (0-100),[19]; 63 g al/ha,50
same,CHEAL phytotoxicity rating (0-100),[19]; 500 g al/ha,90
same,DIGSA phytotoxicity rating (0-100),[20]; 63 g al/ha,0
same,DIGSA phytotoxicity rating (0-100),[20]; 500 g al/ha,0
same,AMARE phytotoxicity rating (0-100),[21]; 63 g al/ha,20
same,AMARE phytotoxicity rating (0-100),[21]; 500 g al/ha,95
same,CASOB phytotoxicity rating (0-100),[22]; 63 g al/ha,20
same,CASOB phytotoxicity rating (0-100),[22]; 500 g al/ha,40
same,ABUTH phytotoxicity rating (0-100),[23]; 63 g al/ha,60
same,ABUTH phytotoxicity rating (0-100),[23]; 500 g al/ha,99
same,CORN crop damage rating (0-100),[24]; 63 g al/ha,0
same,CORN crop damage rating (0-100),[24]; 500 g al/ha,5
same,RICE crop damage rating (0-100),[25]; 63 g al/ha,0
same,RICE crop damage rating (0-100),[25]; 500 g al/ha,5
same,SOY crop damage rating (0-100),[26]; 63 g al/ha,0
same,SOY crop damage rating (0-100),[26]; 500 g al/ha,40

# — patent US6479435B1, “Diaryl ethers and processes for their preparation and herbicidal and desiccant compositions containing them” (ISK Americas Incorporated, priority 1997, dated 2002)
